Holding throughout (experiment): NCI anticancer screen, dose series, 48 h
Assay [1] has as its system DLD-1.
The test system of assay [2] is DMS-114.
Assay [3] concerns HOP-18.
Assay [4] concerns MDA-MB-231.
The test system of assay [5] is NCI/ADR-RES.
Assay [6] relates to RXF 631.
Assay [7] deals with SNB-78.
The test system of assay [8] is XF498.

SMILES strings stand for the structures.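 Each compound was tested at five concentrations against cells in 96-well plates for 48 hours. At the GI50, growth is halved.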 Calls of active or inactive are those of the source. Rule as the data show it: active = GI50 up to about 1.1 µM and inactive = higher.

In the case of `C/C(=N\N=C(/S)N1CC2CCC(CC2)C1)c1cccc[n+]1[O-]`, the GI50 was 2.06 µM (inactive) in assay [1]; 1.35 µM (inactive) in assay [2]; 30.3 µM (inactive) in assay [3]; 19.5 µM (inactive) in assay [4]; 3.09 µM (inactive) in assay [5]; 3.45 µM (inactive) in assay [6]. The GI50 in assay [7] is 8.34 µM (inactive); in assay [8], 21.4 µM (inactive).
As to `Nc1c(Cl)ncnc1NCCCCCCCCCCCCNc1ncnc(Cl)c1N`, the GI50 is 2.73 µM (inactive) in assay [1]; < 0.01 µM (active) in assay [2]; 5.48 µM (inactive) in assay [3]; 1.94 µM (inactive) in assay [6]; 0.137 µM (active) in assay [7]; 0.593 µM (active) in assay [8].
For `CCC1(CN(C)C)CC/C(=C\c2ccc(OC)c(OC)c2)C1=O` (stereo not given), the GI50 in assay [1] is > 80.7 µM (inactive); in assay [2], 99.8 µM (inactive); in assay [3] it was > 100 µM (inactive); in assay [6], > 100 µM (inactive); in assay [7], > 100 µM (inactive); in assay [8], > 100 µM (inactive).

The record behind these values is ChEMBL document CHEMBL1201862, “PubChem BioAssay data set” (2004).
